Test results as given in ChEMBL document CHEMBL1121431, “Preparation and biological evaluation of 2-azaergolines” (1980).

Columns and labels:
Type in all cases: functional
[1] = test system: Mus musculus; test: Mean jumps/mouse was measured at 10 mg/kg dose.
[2] = test system: Mus musculus; test: Total jumps of mice was measured at 3 mg/kg dose.
[3] = test system: Mus musculus; test: Mean jumps/mouse was measured at 3 mg/kg dose.
[4] = test system: Mus musculus; test: Percentage inhibition of jumping was measured at 10 mg/kg dose.
[5] = test system: Mus musculus; test: Total jumps of mice was measured at 10 mg/kg dose.
[6] = test system: Mus musculus; test: Percentage inhibition of jumping was measured at 3 mg/kg dose.

For `CSCC1CC2c3cccc4[nH]nc(c34)CC2N(C)C1` (stereo unspecified), the Activity [1] was 508, the Activity [2] was 5113 and the Activity [3] was 426. For the same molecule, the inhibition in vivo at 10 mg/kg [4] was 49.6%, the Activity [5] was 6096 and the inhibition in vivo at 3 mg/kg [6] was 47.9%.
